In ChEMBL document CHEMBL1649454, “Genetic analysis of colistin resistance in Salmonella enterica serovar Typhimurium” (2009):
The source made the active and inactive calls. No cut-off for these calls is given here.

Columns and labels:
Salmonella typhimurium [1] = assay: Antimicrobial activity against Salmonella enterica serovar Typhimurium LT2 DA10833 harboring pmrB (GAA to AAA, E161K mutant) grown in liquid culture; format: functional
Salmonella typhimurium [2] = assay: Antimicrobial activity against Salmonella enterica serovar Typhimurium LT2 DA10826 harboring pmrA (GGG to GAG, G53E mutant) grown in liquid culture; format: functional
Salmonella typhimurium [3] = assay: Antimicrobial activity against Salmonella enterica serovar Typhimurium LT2 DA10840 harboring pmrA (CGC to CAC, R81H mutant) grown in liquid culture; format: functional
Salmonella typhimurium [4] = assay: Antimicrobial activity against Salmonella enterica serovar Typhimurium LT2 DA6192 grown in liquid culture; format: functional
Salmonella typhimurium [5] = assay: Antimicrobial activity against Salmonella enterica serovar Typhimurium LT2 DA10845 harboring pmrB (ATG to ATA, M186I mutant) grown in liquid culture; format: functional
Salmonella typhimurium [6] = assay: Antimicrobial activity against Salmonella enterica serovar Typhimurium LT2 DA10875 harboring pmrB (GGG to AGG, G206R mutant) by Etest method; format: functional, organism-based; settings: Salmonella enterica subsp. enterica serovar Typhimurium str. LT2
Salmonella typhimurium [7] = assay: Antimicrobial activity against Salmonella enterica serovar Typhimurium LT2 DA10856 harboring pmrB (GTG to ATG, V161M mutant) by Etest method; format: functional, organism-based; settings: Salmonella enterica subsp. enterica serovar Typhimurium str. LT2
Salmonella typhimurium [8] = assay: Antimicrobial activity against Salmonella enterica serovar Typhimurium LT2 DA10859 harboring pmrB (GTG to GGG, V161G mutant) by Etest method; format: functional, organism-based; settings: Salmonella enterica subsp. enterica serovar Typhimurium str. LT2
Salmonella typhimurium [9] = assay: Bactericidal activity against Salmonella enterica serovar Typhimurium LT2 DA6192 at 1 mg/L after 30 mins by time kill study; format: functional, organism-based; settings: Salmonella enterica subsp. enterica serovar Typhimurium str. LT2
Salmonella typhimurium [10] = assay: Bactericidal activity against Salmonella enterica serovar Typhimurium LT2 DA10840 harboring pmrA R81H mutant at 16 mg/L after 30 mins by time kill study; format: functional, organism-based; settings: Salmonella enterica subsp. enterica serovar Typhimurium str. LT2
Salmonella typhimurium [11] = assay: Bactericidal activity against Salmonella enterica serovar Typhimurium LT2 DA10840 harboring pmrA R81H mutant at 16 mg/L after 240 mins by time kill study; format: functional, organism-based; settings: Salmonella enterica subsp. enterica serovar Typhimurium str. LT2
Salmonella typhimurium [12] = assay: Antimicrobial activity against Salmonella enterica serovar Typhimurium LT2 DA10874 harboring pmrB ACC to CCC, T147P mutant) by Etest method; format: functional, organism-based; settings: Salmonella enterica subsp. enterica serovar Typhimurium str. LT2
Salmonella typhimurium [13] = assay: Antimicrobial activity against Salmonella enterica serovar Typhimurium LT2 DA10835 harboring (pmrB GTG to CTG, V161L mutant) by Etest method; format: functional, organism-based; settings: Salmonella enterica subsp. enterica serovar Typhimurium str. LT2
Salmonella typhimurium [14] = assay: Antimicrobial activity against Salmonella enterica serovar Typhimurium LT2 DA10839 harboring pmrB (TCC to CCC, S124P mutant) by Etest method; format: functional, organism-based; settings: Salmonella enterica subsp. enterica serovar Typhimurium str. LT2
Salmonella typhimurium [15] = assay: Antimicrobial activity against Salmonella enterica serovar Typhimurium LT2 DA10848 harboring pmrB (ACG to CCG, T156P mutant) by Etest method; format: functional, organism-based; settings: Salmonella enterica subsp. enterica serovar Typhimurium str. LT2
Salmonella typhimurium [16] = assay: Antimicrobial activity against Salmonella enterica serovar Typhimurium LT2 DA10853 pmrB AAT to TAT and N130Y mutant by Etest method; format: functional, organism-based; settings: Salmonella enterica subsp. enterica serovar Typhimurium str. LT2
Salmonella typhimurium [17] = assay: Antimicrobial activity against Salmonella enterica serovar Typhimurium LT2 DA10840 harboring pmrA (CGC to CAC, R81H mutant) by Etest method; format: functional, organism-based; settings: Salmonella enterica subsp. enterica serovar Typhimurium str. LT2
Salmonella typhimurium [18] = assay: Bactericidal activity against Salmonella enterica serovar Typhimurium LT2 DA10845 harboring pmrB M186I mutant at 16 mg/L after 240 mins by time kill study; format: functional, organism-based; settings: Salmonella enterica subsp. enterica serovar Typhimurium str. LT2
Salmonella typhimurium [19] = assay: Bactericidal activity against Salmonella enterica serovar Typhimurium LT2 DA10845 harboring pmrB M186I mutant at 16 mg/L after 30 mins by time kill study; format: functional, organism-based; settings: Salmonella enterica subsp. enterica serovar Typhimurium str. LT2
Salmonella typhimurium [20] = assay: Antimicrobial activity against Salmonella enterica serovar Typhimurium LT2 DA10837 harboring pmrB (CCG to CAG, P94Q mutant) by Etest method; format: functional, organism-based; settings: Salmonella enterica subsp. enterica serovar Typhimurium str. LT2
Salmonella typhimurium [21] = assay: Antimicrobial activity against Salmonella enterica serovar Typhimurium LT2 DA10844 harboring pmrA (GGG to AGG, G15R mutant) by Etest method; format: functional, organism-based; settings: Salmonella enterica subsp. enterica serovar Typhimurium str. LT2
Salmonella typhimurium [22] = assay: Antimicrobial activity against Salmonella enterica serovar Typhimurium LT2 DA6192 by Etest method; format: functional, organism-based; settings: Salmonella enterica subsp. enterica serovar Typhimurium str. LT2
Salmonella typhimurium [23] = assay: Antimicrobial activity against Salmonella enterica serovar Typhimurium LT2 DA10850 harboring pmrA (GGG to AGG, G53R mutant) by Etest method; format: functional, organism-based; settings: Salmonella enterica subsp. enterica serovar Typhimurium str. LT2
Salmonella typhimurium [24] = assay: Antimicrobial activity against Salmonella enterica serovar Typhimurium LT2 DA10831 harboring pmrB (AGC to CGC, S305R mutant) by Etest method; format: functional, organism-based; settings: Salmonella enterica subsp. enterica serovar Typhimurium str. LT2
Salmonella typhimurium [25] = assay: Antimicrobial activity against Salmonella enterica serovar Typhimurium LT2 DA10832 harboring pmrB (ACC to GCC, T92A mutant) by Etest method; format: functional, organism-based; settings: Salmonella enterica subsp. enterica serovar Typhimurium str. LT2
Salmonella typhimurium [26] = assay: Antimicrobial activity against Salmonella enterica serovar Typhimurium LT2 DA10826 harboring pmrA (GGG to GAG, G53E mutant)by Etest method; format: functional, organism-based; settings: Salmonella enterica subsp. enterica serovar Typhimurium str. LT2
Salmonella typhimurium [27] = assay: Bactericidal activity against Salmonella enterica serovar Typhimurium LT2 DA10829 harboring pmrB S29R mutant at 16 mg/L after 30 mins by time kill study; format: functional, organism-based; settings: Salmonella enterica subsp. enterica serovar Typhimurium str. LT2
Salmonella typhimurium [28] = assay: Antimicrobial activity against Salmonella enterica serovar Typhimurium LT2 DA10833 harboring pmrB (GAA to AAA, E161K mutant) by Etest method; format: functional, organism-based; settings: Salmonella enterica subsp. enterica serovar Typhimurium str. LT2
Salmonella typhimurium [29] = assay: Antimicrobial activity against Salmonella enterica serovar Typhimurium LT2 DA10862 harboring pmrB (GAG to GCG, E21A mutant) by Etest method; format: functional, organism-based; settings: Salmonella enterica subsp. enterica serovar Typhimurium str. LT2
Salmonella typhimurium [30] = assay: Antimicrobial activity against Salmonella enterica serovar Typhimurium LT2 DA10845 harboring pmrB (ATG to ATA, M186I mutant) by Etest method; format: functional, organism-based; settings: Salmonella enterica subsp. enterica serovar Typhimurium str. LT2
Salmonella typhimurium [31] = assay: Antimicrobial activity against Salmonella enterica serovar Typhimurium LT2 DA10829 harboring pmrB (AGT to AGA, S29R mutant) by Etest method; format: functional, organism-based; settings: Salmonella enterica subsp. enterica serovar Typhimurium str. LT2
Salmonella typhimurium [32] = assay: Antimicrobial activity against Salmonella enterica serovar Typhimurium LT2 DA10864 harboring pmrB (AGC to AGA, S305R mutant) by Etest method; format: functional, organism-based; settings: Salmonella enterica subsp. enterica serovar Typhimurium str. LT2
Salmonella typhimurium [33] = assay: Bactericidal activity against Salmonella enterica serovar Typhimurium LT2 DA10829 harboring pmrB S29R mutant at 16 mg/L after 240 mins by time kill study; format: functional, organism-based; settings: Salmonella enterica subsp. enterica serovar Typhimurium str. LT2
Salmonella typhimurium [34] = assay: Antimicrobial activity against Salmonella enterica serovar Typhimurium LT2 DA10863 harboring pmrB (GGG to TGG, G206W mutant) by Etest method; format: functional, organism-based; settings: Salmonella enterica subsp. enterica serovar Typhimurium str. LT2
Salmonella typhimurium [35] = assay: Antimicrobial activity against Salmonella enterica serovar Typhimurium LT2 DA10857 harboring pmrA (CGC to TGC, R81C mutant) by Etest method; format: functional, organism-based; settings: Salmonella enterica subsp. enterica serovar Typhimurium str. LT2
[36] = Salmonella enterica subsp. enterica serovar Typhimurium str. LT2

CC[C@H](C)[C@H](NC(=O)[C@H](CCCCN)NC(=O)[C@H](CCC(=O)O)NC(=O)[C@H](CCCCN)NC(=O)[C@H](CO)NC(=O)[C@H](CCCCN)NC(=O)[C@H](CCCNC(=N)N)NC(=O)[C@H](Cc1ccccc1)NC(=O)[C@H](Cc1ccccc1)NC(=O)[C@H](CC(=O)O)NC(=O)CNC(=O)[C@H](CC(C)C)NC(=O)[C@@H](N)CC(C)C)C(=O)NCC(=O)N[C@@H](CCCCN)C(=O)N[C@@H](CCC(=O)O)C(=O)N[C@@H](Cc1ccccc1)C(=O)N[C@@H](CCCCN)C(=O)N[C@@H](CCCNC(=N)N)C(=O)N[C@H](C(=O)N[C@H](C(=O)N[C@@H](CCC(N)=O)C(=O)N[C@@H](CCCNC(=N)N)C(=O)N[C@H](C(=O)N[C@@H](CCCCN)C(=O)N[C@@H](CC(=O)O)C(=O)N[C@@H](Cc1ccccc1)C(=O)N[C@@H](CC(C)C)C(=O)N[C@@H](CCCNC(=N)N)C(=O)N[C@@H](CC(N)=O)C(=O)N[C@@H](CC(C)C)C(=O)N[C@H](C(=O)N1CCC[C@H]1C(=O)N[C@@H](CCCNC(=N)N)C(=O)N[C@H](C(=O)N[C@@H](CCC(=O)O)C(=O)N[C@@H](CO)C(=O)O)[C@@H](C)O)C(C)C)[C@@H](C)CC)C(C)C)[C@@H](C)CC [CATHELICIDIN]
MIC (Salmonella typhimurium [1]): 25 µM | MIC (Salmonella typhimurium [2]): 25 µM | MIC (Salmonella typhimurium [3]): 25 µM | MIC (Salmonella typhimurium [4]): 15 µM | MIC (Salmonella typhimurium [5]): 25 µM

BLEOMYCIN
MIC (Salmonella typhimurium [1]; [36]): 0.19 mg/L | MIC (Salmonella typhimurium [2]; [36]): 0.19 mg/L | MIC (Salmonella typhimurium [3]; [36]): 0.19 mg/L | MIC (Salmonella typhimurium [4]; [36]): 0.19 mg/L | MIC (Salmonella typhimurium [5]; [36]): 0.19 mg/L

COLISTIN
MIC (Salmonella typhimurium [6]): 2 mg/L | MIC (Salmonella typhimurium [7]): 4 mg/L | MIC (Salmonella typhimurium [8]): 3 mg/L | Activity (Salmonella typhimurium [9]): Active | Activity (Salmonella typhimurium [10]): Active | Activity (Salmonella typhimurium [11]): Active | MIC (Salmonella typhimurium [12]): 2.5 mg/L | MIC (Salmonella typhimurium [13]): 2 mg/L | MIC (Salmonella typhimurium [14]): 2.3 mg/L | MIC (Salmonella typhimurium [15]): 4.4 mg/L | MIC (Salmonella typhimurium [16]): 2 mg/L | MIC (Salmonella typhimurium [17]): 3 mg/L | Activity (Salmonella typhimurium [18]): Active | Activity (Salmonella typhimurium [19]): Active | MIC (Salmonella typhimurium [20]): 2.5 mg/L | MIC (Salmonella typhimurium [21]): 2.7 mg/L | MIC (Salmonella typhimurium [22]): 0.125 mg/L | MIC (Salmonella typhimurium [23]): 3 mg/L | MIC (Salmonella typhimurium [24]): 2.7 mg/L | MIC (Salmonella typhimurium [25]): 0.25 mg/L | MIC (Salmonella typhimurium [26]): 3 mg/L | Activity (Salmonella typhimurium [27]): Active | MIC (Salmonella typhimurium [28]): 3 mg/L | MIC (Salmonella typhimurium [29]): 4 mg/L | MIC (Salmonella typhimurium [30]): 2.8 mg/L | MIC (Salmonella typhimurium [31]): 0.5 mg/L | MIC (Salmonella typhimurium [32]): 2.7 mg/L | Activity (Salmonella typhimurium [33]): Active | MIC (Salmonella typhimurium [34]): 2 mg/L | MIC (Salmonella typhimurium [35]): 4 mg/L

H-RRRPRPPYLPRPRPPPFFPPRLPPRIPPGFPPRFPPRFP-NH2
MIC (Salmonella typhimurium [1]): 3 µM | MIC (Salmonella typhimurium [2]): 3 µM | MIC (Salmonella typhimurium [3]): 3 µM | MIC (Salmonella typhimurium [4]): 3 µM | MIC (Salmonella typhimurium [5]): 3 µM
